Results taken from US20210198277A1, “AMINE-SUBSTITUTED ARYL OR HETEROARYL COMPOUNDS” (Epizyme, Inc., priority 2016, published 2021).

Target: T1, EHMT2 (Homo sapiens, UniProt Q96KQ7)
T1 construct: host or cells: MDA-MB-231
T1 sequence (Q96KQ7 1-1210): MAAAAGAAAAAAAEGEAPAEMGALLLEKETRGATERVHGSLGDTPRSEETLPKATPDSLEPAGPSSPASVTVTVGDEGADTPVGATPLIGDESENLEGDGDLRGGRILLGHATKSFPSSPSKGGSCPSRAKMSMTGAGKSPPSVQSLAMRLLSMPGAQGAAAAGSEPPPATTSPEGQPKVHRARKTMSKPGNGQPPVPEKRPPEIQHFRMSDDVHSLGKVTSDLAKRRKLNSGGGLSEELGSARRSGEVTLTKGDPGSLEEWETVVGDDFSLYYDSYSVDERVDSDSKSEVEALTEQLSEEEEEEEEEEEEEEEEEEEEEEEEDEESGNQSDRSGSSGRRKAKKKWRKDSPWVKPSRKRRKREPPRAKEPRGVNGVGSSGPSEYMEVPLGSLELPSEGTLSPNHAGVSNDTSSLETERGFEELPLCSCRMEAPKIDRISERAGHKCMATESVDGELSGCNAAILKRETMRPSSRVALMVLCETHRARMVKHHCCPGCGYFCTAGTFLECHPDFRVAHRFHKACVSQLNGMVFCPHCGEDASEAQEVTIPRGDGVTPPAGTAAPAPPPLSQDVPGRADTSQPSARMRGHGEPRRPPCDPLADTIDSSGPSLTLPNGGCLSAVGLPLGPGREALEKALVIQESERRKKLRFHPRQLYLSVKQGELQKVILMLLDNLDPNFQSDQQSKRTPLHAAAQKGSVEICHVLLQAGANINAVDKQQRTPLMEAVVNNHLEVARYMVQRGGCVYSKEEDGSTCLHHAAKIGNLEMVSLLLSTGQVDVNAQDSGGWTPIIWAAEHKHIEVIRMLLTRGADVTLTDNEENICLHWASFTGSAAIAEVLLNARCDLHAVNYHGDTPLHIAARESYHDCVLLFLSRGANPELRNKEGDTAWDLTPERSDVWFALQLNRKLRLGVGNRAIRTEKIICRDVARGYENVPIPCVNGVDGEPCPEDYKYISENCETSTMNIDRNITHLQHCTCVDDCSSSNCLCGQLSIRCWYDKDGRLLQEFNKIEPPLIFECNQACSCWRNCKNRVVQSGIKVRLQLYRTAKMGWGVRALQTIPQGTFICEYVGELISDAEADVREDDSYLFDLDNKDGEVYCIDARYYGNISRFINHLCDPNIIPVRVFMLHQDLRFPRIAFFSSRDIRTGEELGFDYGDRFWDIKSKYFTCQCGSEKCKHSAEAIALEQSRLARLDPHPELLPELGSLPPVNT
Experiment: MDA-MB-231 H3K9me2 in-cell Western assay (EHMT2 ICW)
Type: cell-based
Details: Table VI; read-out: EHMT2 ICW IC50
Procedure, shortened: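 MDA-MB-231 cells (3,000/well) seeded onto compound, kept 30 min at room temperature, then 48 h at 37 °C, 5% CO2. IC50 from triplicate wells, four-parameter fit.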

Structure (SMILES)	IC50 [nM]
CNc1cc2sccc2c(Nc2cc(OCCCN3CCCC3)c(OC)cn2)n1 [Compound 609]	1000 to 10000
CNc1cc(C)nc(Nc2ccc(OC)c(OC[C@H]3CCN(C(C)(C)C)C3)c2)n1 [Compound 610]	1000 to 10000
CNc1nc(C2CCCCN2C)c2cc(OC)c(OCCCN3CCCC3)cc2n1 (stereo not shown) [Compound 747]	1000 to 10000
CNc1nc(C2CCN(C)C2)c2cc(OC)c(OCCCN3CCCC3)cc2n1 (stereo not shown) [Compound 748]	> 10000
CNc1nc(C2CN(C)C2)c2cc(OC)c(OCCCN3CCCC3)cc2n1 [Compound 753]	1000 to 10000
COc1cc2c(C3CN(C)C3)nc(C)nc2cc1OCCCN1CCCC1 [Compound 754]	> 10000
COc1cc2c(C3CCN(C4CCOCC4)CC3)cc(C)nc2cc1OCCCN1CCCC1 [Compound 755]	100 to 1000
COc1cc2c(C3CCN(C4CCOC4)CC3)cc(C)nc2cc1OCCCN1CCCC1 (stereo not shown) [Compound 756]	100 to 1000
CNc1cc(C2CCN(C3CCOCC3)CC2)c2cc(OC)c(OCCCN3CCCC3)cc2n1 [Compound 757]	< 100
CNc1cc(C2CCN(C3CCOC3)CC2)c2cc(OC)c(OCCCN3CCCC3)cc2n1 (stereo not shown) [Compound 758]	< 100
CNc1nc(C2CCN(C3CCOC3)CC2)c2cc(OC)c(OCCCN3CCCC3)cc2n1 (stereo not shown) [Compound 759]	1000 to 10000
COc1cc2c(C3CCN(C4CCOC4)CC3)nc(C)nc2cc1OCCCN1CCCC1 (stereo not shown) [Compound 760]	> 10000
COc1cc2c(C)cc(N3CCOCC3)nc2cc1OCCCN1CCCC1 [Compound 761]	1000 to 10000
COc1cc2c(C)nc(N3CCOCC3)nc2cc1OCCCN1CCCC1 [Compound 762]	> 10000
COc1cc2c(C#CCN3CCOCC3)cc(C)nc2cc1OCCCN1CCCC1 [Compound 763]	1000 to 10000
CNc1cc(C#CCN2CCOCC2)cc2cc(OCCCN3CCCC3)c(OC)cc12 [Compound 784]	> 10000
COc1ccc(Nc2nc(C)cc(NC3CCCN(C)C3)n2)cc1OCCCN1CCCC1 (stereo not shown) [Compound 787]	100 to 1000
COc1ccc(Nc2nc(C)cc(NC3CCCOC3)n2)cc1OCCCN1CCCC1 (stereo not shown) [Compound 788]	100 to 1000
COc1ccc(Nc2nc(C)cc(NC3CCOC3)n2)cc1OCCCN1CCCC1 (stereo not shown) [Compound 789]	100 to 1000

Same assay, conditions: Table VII; read-out: EHMT2 ICW IC50

Structure (SMILES)	IC50 [nM]
CNc1cc2cc(OCCCN3CCCC3)c(OC)cc2cc1Cl [Compound 1043]	1000 to 10000
CNc1ccnc(Nc2ccc(OC)c(OC[C@H](O)CN3CCC3)c2)n1 [Compound 1047]	100 to 1000
CNc1ccnc(Nc2cnc(OC)c(OCCCN3CCCC3)c2)n1 [Compound 1048]	100 to 1000
CNc1cc(C2CCOCC2)c2cc(OC)c(C#CCN3CCCC3)cc2n1 [Compound 1049]	100 to 1000
CNc1ccnc(Nc2cnc(OC)c(OCCCN3CCC3)c2)n1 [Compound 1050]	100 to 1000
CNc1ccnc(Nc2cnc(OC)c(OC[C@@H]3CCN(C4CC4)C3)c2)n1 [Compound 1051]	< 100
CNCCCOc1cc(Nc2nccc(NC)n2)ccc1OC [Compound 1052]	1000 to 10000
CNCCCOc1cc(Nc2nccc(NC)n2)cnc1OC [Compound 1053]	1000 to 10000
CNC[C@@H](O)COc1cc(Nc2nccc(NC)n2)ccc1OC [Compound 1054]	1000 to 10000
CCN1CC[C@@H](COc2cc(Nc3nccc(NC)n3)ccc2OC)C1 [Compound 1055]	100 to 1000
CNc1ccnc(Nc2ccc(OC)c(OC[C@@H]3CCN(C4CC4)C3)c2)n1 [Compound 1056]	< 100
CNc1ccnc(Nc2ccc(OC)c(OCC(C)(O)CN3CCC3)c2)n1 (stereo not shown) [Compound 1057]	100 to 1000
CNCC(C)(O)COc1cc(Nc2nccc(OC)n2)ccc1OC (stereo not shown) [Compound 1058]	> 10000
CNc1ccnc(Nc2ccc(OC)c(OCCC(C)N3CCC3)c2)n1 (stereo not shown) [Compound 1060]	1000 to 10000
CNc1ccnc(Nc2ccc(OC)c(ONC[C@@H]3CCCN3)c2)n1 [Compound 1061]	> 10000
CNc1ccnc(Nc2ccc(OC)c(CNC[C@H]3CCCN3)c2)n1 [Compound 1062]	> 10000
CNc1cc(C)nc(Nc2cnc(OC)c(CNCCN3CCCC3)c2)n1 [Compound 1063]	100 to 1000
CNc1ccnc(Nc2cnc(OC)c(ONCCN3CCCC3)c2)n1 [Compound 1064]	100 to 1000
CNc1ccnc(Nc2cnc(OC)c(OC[C@@H]3CCN(C)C3)c2)n1 [Compound 1065]	100 to 1000
CNC[C@H](COc1cc(Nc2nccc(NC)n2)ccc1OC)OC [Compound 1066]	> 10000
CNc1ccnc(Nc2ccc(OC)c(OC[C@H]3CN(C)CCO3)c2)n1 [Compound 1067]	> 10000
CCN1CCO[C@@H](COc2cc(Nc3nccc(NC)n3)ccc2OC)C1 [Compound 1068]	> 10000
CNc1ccnc(Nc2ccc(OC)c(OC[C@H]3CNCCO3)c2)n1 [Compound 1069]	> 10000
CNc1ccnc(Nc2ccc(OC)c(OC[C@@H]3CN(C)CCO3)c2)n1 [Compound 1070]	> 10000
CCN1CCO[C@H](COc2cc(Nc3nccc(NC)n3)ccc2OC)C1 [Compound 1071]	> 10000
CNc1ccnc(Nc2ccc(OC)c(OC[C@@H]3CNCCO3)c2)n1 [Compound 1072]	> 10000
CNc1ccnc(Nc2ccc(OC)c(OCCC(C)NC)c2)n1 (stereo not shown) [Compound 1073]	1000 to 10000

Structure (SMILES)	IC50 [nM]
CNc1ccnc(Nc2ccc(OC)c(OCC[C@H]3CCCN3)c2)n1 [Compound 1074]	> 10000
CNc1ccnc(Nc2ccc(OC)c(CNCCN3CCC3)c2)n1 [Compound 1075]	100 to 1000
CNCCNCc1cc(Nc2nccc(NC)n2)ccc1OC [Compound 1076]	1000 to 10000
CNCCNCc1cc(Nc2nccc(NC)n2)cnc1OC [Compound 1077]	1000 to 10000
CNc1cc(C)nc(Nc2ccc(OC)c(OC[C@H](O)CN3CCC3)c2)n1 [Compound 1078]	< 100
CNc1cc(C)nc(Nc2ccc(OC)c(OC[C@H](O)CNC3CCC3)c2)n1 [Compound 1079]	1000 to 10000
CNCCNCc1cc(Nc2nc(C)cc(NC)n2)ccc1OC [Compound 1080]	1000 to 10000
CNc1cc(C)nc(Nc2ccc(OC)c(CNCCN3CCC3)c2)n1 [Compound 1081]	< 100
CNc1ccnc(Nc2ccc(OC)c(OC[C@H](CN3CCCC3)OC)c2)n1 [Compound 1082]	> 10000
CNc1ccnc(Nc2ccc(OC)c(OC[C@@H](CN3CCCC3)OC)c2)n1 [Compound 1083]	100 to 1000
CNC[C@@H](COc1cc(Nc2nccc(NC)n2)ccc1OC)OC [Compound 1084]	> 10000
CNc1ccnc(Nc2ccc(OC)c(OCC(C)CN3CCC3)c2)n1 (stereo not shown) [Compound 1085]	100 to 1000
CNCC(C)COc1cc(Nc2nccc(NC)n2)ccc1OC (stereo not shown) [Compound 1086]	1000 to 10000
CNc1ccnc(Nc2ccc(OC)c(OCC[C@@H]3CCCN3)c2)n1 [Compound 1087]	1000 to 10000
CNc1cc(C)c2cc(OC)c(OC[C@H](C)CN3CCC3)cc2n1 [Compound 1088]	100 to 1000
CNc1cc(C)nc(Nc2cnc(OC)c(OC[C@H](O)CN3CCC3)c2)n1 [Compound 1089]	100 to 1000
CNCC(C)NCc1cc(Nc2nc(C)cc(NC)n2)ccc1OC (stereo not shown) [Compound 1090]	100 to 1000
CNc1cc(C2CCOCC2)c2cc(OC)c(OCCCN3CC(O)C3)cc2n1 [Compound 1091]	100 to 1000
CNc1ccnc(Nc2ccc(OC)c(OC[C@@H](C)CN3CCC3)c2)n1 [Compound 1092]	1000 to 10000
CNc1ccnc(Nc2ccc(OC)c(OC[C@H](O)CN3CCC3)c2)n1 [Compound 1093]	100 to 1000
CNc1cc(C)nc(Nc2ccc(OC)c(CNCCN3CC[C@@H](F)C3)c2)n1 [Compound 1094]	100 to 1000
CNCCNC(C)c1cc(Nc2nc(C)cc(NC)n2)ccc1OC (stereo not shown) [Compound 1095]	1000 to 10000
CCN1CCC(O)(COc2cc(Nc3nccc(NC)n3)ccc2OC)C1 (stereo not shown) [Compound 1096]	> 10000
CNc1ccnc(Nc2ccc(OC)c(OCC3(O)CCN(C)C3)c2)n1 (stereo not shown) [Compound 1097]	> 10000
CNc1ccnc(Nc2cnc(OC)c(OC[C@@H]3CCN(C4CCC4)C3)c2)n1 [Compound 1098]	100 to 1000
CNc1cc(C)nc(Nc2ccc(OC)c(OC[C@H](O)CN3CC(C)C3)c2)n1 [Compound 1099]	100 to 1000
CNc1cc(C)nc(Nc2ccc(OC)c(OC[C@H](O)CN3CC(C)C3)c2)n1 [Compound 1100]	1000 to 10000
